{"source": "patent US5723139A", "about": "“Skin care compositions containing a polycyclic triterpene carboxylic acid and a retinoid” (Chesebrough-Pond's USA Co., Division of Conopco, Inc., priority 1996, dated 1998)", "key": {"[1]": {"system": "human keratinocyte transglutaminase I (TGase I)", "test": "Transglutaminase I ELISA in cultured keratinocytes, normalized to DNA content (Examples 2 and 3 procedure)", "assay_type": "cell-based", "details": "for mean TGase/DNA × 10^5 ± s.d / effect on keratinocyte TG1 level / differentiation (in words) / activity at 1 µM / activity at 0.25 µM / activity at 0.0025 µM: 72 hours; for mean TGase/DNA × 10^5 ± s.d / activity at 1 µM / activity at 0.25 µM / activity at 0.0025 µM: n = 3; for activity at 1 µM / activity at 0.25 µM / activity at 0.0025 µM: Homo sapiens, Keratinocyte, % of control; for activity at 0.25 µM: Example 3, Table 3; for activity at 0.0025 µM: Example 2, Table 2; for effect on keratinocyte differentiation / transglutaminase I levels (in words, summary): summary of Examples 1-3", "description": "Human keratinocytes, isolated from neonatal foreskin by trypsin treatment were grown in Dulbecco Modification Eagle (DME) Hams F12 (1:1) medium/10% fetal calf serum in the presence of irradiated 3T3 mouse fibroblasts for establishing dividing keratinocyte colonies. Cells were grown under the above condition until their second passage and kept frozen for future use. Frozen second passage keratinocytes were thawed and plated into the above medium and grown for five days before they were switched to a serum-free MCDB 153-based medium keratinocyte growth medium (KGM) from Clonetics Corporation, San Diego, Calif., containing 0.15 mM Ca, or keratinocyte serum-free media (KSFM) from GIBCO containing 0.09 mM Ca). On day 7, when the cells were 80-90% confluent, they were trypsinized and plated in the serum-free medium for the various experiments.\nDuring the process of terminal differentiation in the epidermis, a 15 nm thick layer of protein, known as the cornified envelope (CE) is formed on the inner surface of the cell periphery. The CE is composed of numerous distinct proteins which have been cross-linked together by the formation of N^ε -(γ-glutamyl) lysine isodipeptide bonds catalyzed by the action of at least two different transglutaminases (TGases) expressed in the epidermis. TGase I is expressed in abundance in the differentiated layers of the epidermis, especially the granular layer, but is absent in the undifferentiated basal epidermis. Thus TGase I is a useful marker of epidermal keratinocyte differentiation with high TGase I levels indicating a more differentiated state. An ELISA based TGase I assay, using a TGase I antibody, was used to assess the state of differentiation of the cultured keratinocytes in the examples that follow.\nKeratinocytes (cultured as described above) were plated in 96 well plates at a density of 3,000 cells per well in 200 μl of cell culture media. After incubation for four days, the media was changed to media containing test compounds (six replicates per test). The cells were cultured for a further 72 hours after which time the media was aspirated and the plates stored at -70° C. After the plates were removed from the freezer, the cells were further freezed fractured by freezing and thawing and then washed 3x with PBS. The cells were incubated for one hour at room temperature (R/T) with TBS/5% BSA buffer. Cells were then incubated with 100 μl of monoclonal anti-human transglutaminase (IgG) mouse antibody (primary antibody) obtained from Biomedical Technologies Inc. diluted 1:2000 in TBS/1% BSA buffer for two hours at 37° C., and then rinsed six times with wash buffer (TBS/1% BSA/0.05% Tween-20). Cells were next incubated with 100 μl of Fab fragment, peroxidase conjugated anti-mouse IgG antibody (secondary antibody) from Amersham diluted 1:4,000 in wash buffer for two hours at 37° C. and then rinsed three times with wash buffer and three times with PBS. Cells were incubated with substrate solution (4mg o-phenylene diamine and 3.3 μl 30% H2 O2 in 10 mL 0.1M citrate buffer, pH 5.0) for five minutes at R/T and in darkness (under aluminum foil). The reaction was stopped by the addition of 50 μl 4N H2SO4. The absorbance of samples was read at 492 nm in the plate reader. Out of the six replicates, four were treated with both antibodies, two were treated only with the secondary antibody (i.e., to determine the background binding of the enzyme conjugated antibody). Transglutaminase I levels were determined by subtracted background from the readings from each treatment and determining the mean s.d. for the replicates exposed to both antibodies.\nThe level of TGase-1 detected after treatment of the cells could be influenced by cell number, i.e., the greater the number of cells the greater the level of TGase-1 detected. The level of TGase-1 was normalized to DNA content of the cells in the same well thus eliminating variation due to differences in cell number. […]"}, "[2]": {"system": "human keratinocyte transglutaminase I (TGase I)", "test": "Transglutaminase I ELISA in cultured keratinocytes, normalized to DNA content (Example 1 procedure)", "assay_type": "cell-based", "details": "2.5×10^-7 M, 2.5×10^-8 M and 2.5×10^-9 M, vs ethanol control", "description": "Human keratinocytes, isolated from neonatal foreskin by trypsin treatment were grown in Dulbecco Modification Eagle (DME) Hams F12 (1:1) medium/10% fetal calf serum in the presence of irradiated 3T3 mouse fibroblasts for establishing dividing keratinocyte colonies. Cells were grown under the above condition until their second passage and kept frozen for future use. […] On day 7, when the cells were 80-90% confluent, they were trypsinized and plated in the serum-free medium for the various experiments.\nDuring the process of terminal differentiation in the epidermis, a 15 nm thick layer of protein, known as the cornified envelope (CE) is formed on the inner surface of the cell periphery. […]\nKeratinocytes (cultured as described above) were plated in 96 well plates at a density of 3,000 cells per well in 200 μl media. […] The absorbance of samples was read at 492 nm in the plate reader. […] TGase levels were determined by subtracting background from the readings from each treatment and determining mean±s.d. for the replicates exposed to both Ab.\nThe level of TGase-1 was normalized to DNA content of the cells in the same well thus eliminating variation due to differences in cell number. DNA quantitation is a particularly useful indicator of cell number, including keratinocyte cell number, because each cell has to all intents and purposes an identical genome and therefore an identical quantity of DNA. […]"}, "skin keratinocytes": {"system": "skin keratinocytes", "test": "Thymidine incorporation / proliferation of skin keratinocytes", "assay_type": "cell-based, human", "details": "summary of Examples 1-3"}, "[3]": {"details": "Example 2, 2.5×10^-9 M retinoic acid or retinol, 10^-6 M glycyrrhizic acid"}, "[4]": {"details": "Example 3, 2.5×10^-7 M retinoic acid or retinol, 10^-6 M oleanolic acid"}}, "note": "Entries after “also recorded” stand apart in the source; their conditions may differ.", "data": [{"smiles": "CC1(C)[C@@H](O[C@H]2O[C@H](C(=O)O)[C@@H](O)[C@H](O)[C@H]2O[C@@H]2O[C@H](C(=O)O)[C@@H](O)[C@H](O)[C@H]2O)CC[C@]2(C)[C@H]3C(=O)C=C4[C@@H]5C[C@@](C)(C(=O)O)CC[C@]5(C)CC[C@@]4(C)[C@]3(C)CC[C@@H]12", "note": "[Glycyrrhizic acid]", "values": [{"measurement": "mean TGase/DNA × 10^5 ± s.d", "setting": "[1]; 10^-6 M, Table 2", "result": "11.98 ± 3.00 × 10^5"}, {"measurement": "effect on keratinocyte TG1 level / differentiation (in words)", "setting": "[1]; [3]", "result": "no inhibitory effect on the keratinocyte TG1 level"}, {"measurement": "activity at 1 µM", "setting": "[1]; 10^-6 M, Table 2", "result": 99, "unit": "%"}]}, {"smiles": "CC1(C)CC[C@]2(C(=O)O)CC[C@]3(C)C(=CC[C@@H]4[C@@]5(C)CC[C@H](O)C(C)(C)[C@@H]5CC[C@]43C)[C@@H]2C1", "note": "[Oleanolic Acid, Oleanolic acid]", "values": [{"measurement": "mean TGase/DNA × 10^5 ± s.d", "setting": "[1]; 10^-6 M, Table 3", "result": "20.95 ± 1.95 × 10^5"}, {"measurement": "effect on keratinocyte TG1 level / differentiation (in words)", "setting": "[1]; [4]", "result": "only a very slight inhibitory effect on the keratinocyte TG1 level"}, {"measurement": "activity at 1 µM", "setting": "[1]; 10^-6 M, Table 3", "result": 93, "unit": "%"}]}, {"smiles": "CC1=C(/C=C/C(C)=C/C=C/C(C)=C/C(=O)O)C(C)(C)CCC1", "note": "[RA, Retinoic acid, reference compound]", "values": [{"measurement": "effect on keratinocyte differentiation / transglutaminase level (in words)", "setting": "[2]", "result": "decreased keratinocyte differentiation; also recorded: dose dependent"}, {"measurement": "mean TGase/DNA × 10^5 ± s.d", "setting": "[1]; 2.5 × 10^-7 M, Table 3", "result": "9.95 ± 2.74 × 10^5"}, {"measurement": "mean TGase/DNA × 10^5 ± s.d", "setting": "[1]; 2.5 × 10^-9 M, Table 2", "result": "4.04 ± 1.23 × 10^5"}, {"measurement": "effect on keratinocyte TG1 level / differentiation (in words)", "setting": "[1]; [3]", "result": "very effective at repressing keratinocyte TG1 levels"}, {"measurement": "effect on keratinocyte TG1 level / differentiation (in words)", "setting": "[1]; [4]", "result": "very effective at repressing keratinocyte TG1 levels"}, {"measurement": "activity at 0.25 µM", "setting": "[1]; 2.5 × 10^-7 M", "result": 44, "unit": "%"}, {"measurement": "activity at 0.0025 µM", "setting": "[1]; 2.5 × 10^-9 M", "result": 33, "unit": "%"}, {"measurement": "effect on keratinocyte differentiation / transglutaminase I levels (in words, summary)", "setting": "[1]", "result": "decreased transglutaminase I levels"}, {"measurement": "effect on thymidine incorporation / keratinocyte proliferation (in words)", "setting": "skin keratinocytes", "result": "increased thymidine incorporation"}]}, {"smiles": "CC1=C(/C=C/C(C)=C/C=C/C(C)=C/CO)C(C)(C)CCC1", "note": "[ROH, Retinol]", "values": [{"measurement": "effect on keratinocyte differentiation / transglutaminase level (in words)", "setting": "[2]", "result": "dose dependent"}, {"measurement": "mean TGase/DNA × 10^5 ± s.d", "setting": "[1]; 2.5 × 10^-7 M, Table 3", "result": "18.27 ± 3.30 × 10^5"}, {"measurement": "mean TGase/DNA × 10^5 ± s.d", "setting": "[1]; 2.5 × 10^-9 M, Table 2", "result": "8.29 ± 2.11 × 10^5"}, {"measurement": "effect on keratinocyte TG1 level / differentiation (in words)", "setting": "[1]; [3]", "result": "less effective than retinoic acid"}, {"measurement": "effect on keratinocyte TG1 level / differentiation (in words)", "setting": "[1]; [4]", "result": "less effective than retinoic acid"}, {"measurement": "activity at 0.25 µM", "setting": "[1]; 2.5 × 10^-7 M", "result": 81, "unit": "%"}, {"measurement": "activity at 0.0025 µM", "setting": "[1]; 2.5 × 10^-9 M", "result": 68, "unit": "%"}, {"measurement": "effect on keratinocyte differentiation / transglutaminase I levels (in words, summary)", "setting": "[1]", "result": "significantly less effective than retinoic acid at inhibiting keratinocyte differentiation"}]}]}
